How the values were obtained:
[1] = test system: rat hearts with adriamycin cardiomyopathy; experiment: Adriamycin cardiomyopathy in rats: gross pathology, Masson's trichrome staining, echocardiography; format: in vivo
Method: (§1) Animal protocol-2: A total of 60 rats were divided into: (1) no treatment (normal control rats, n=12); (2) adriamycin (ADM)^38 injection only, at total dose of 15 mg/kg/ip, 2.5 mg/kg/ip 6 times over 2 weeks, n=12. (3) ADM plus GLP-1 peptide injection, at GLP-1 peptide fragment 7-37 human (dose of 50 nmol/kg/ip/time×6, N=12, from Sigma, St Louis, Mo.), (4) ADM injection plus UTMD-GLP1 peptide delivery (same dose of GLP-1 peptide fragment 7-37 human mixed with microbubble for UTMD), n=12; (5) ADM injection plus UTMD with pXL-BASII-CI-GLP-1/pCI-hyPB, n=12. Half rats were killed at 16 hours after last ADM injection; other half rats were killed at 4 weeks after UTMD. The thymidine analog, 5-bromo-2-deoxyuridine (BrdU) (100 mg/kg) was injected intraperitoneally 6 hours prior to euthanasia.
Animal protocol-3: UTMD was performed after established adriamycin cardiomyopathy defined as a fractional shortening <30% by echocardiography. There were 3 groups of rats as follows: (1) normal control rats, n=6; (2) UTMD with pXL-BASII-CI-DsRed/pCI-hyPB (n=6); (3) UTMD with pXL-BASII-CI-GLP-1/pCI-hyPB (n=12). All rats were killed 4 weeks after UTMD. The thymidine analog, 5-bromo-2-deoxyuridine (BrdU) (100 mg/kg) was injected intraperitoneally 6 hours prior to euthanasia.
Piggybac transposon donor plasmids and helper plasmids ratio (pXL-BASII-CI-GLP-1/pCI-hyPB) was 5:1. Microbubble or control solutions (0.5 ml diluted with 0.5 ml phosphate-buffered solution (PBS)) were infused over 5 min via pump (Genie, Kent Scientific, Torrington, Conn.). During the infusion, ultrasound was directed to the heart using a commercially available ultrasound transducer (S3, Sonos 5500, Philips Ultrasound, Bothell, Wash.). […]
(§2) Echocardiographic measurements of LV fractional shortening and LV posterior wall thickness were made from digital images acquired with a 12 MHz broadband transducer (S12 probe, Philips Ultrasound, Bothell, Wash.). Fractional shortening was evaluated from the following formula: FS=(LVIDd−LVIDs)/LVIDd×100.

[2] = intravenous infusions, patients with myocardial infarction or chronic heart failure; cited from earlier work
[3] = test system: HL-1 cardiac muscle cell line; experiment: Nuclear FoxO1 in HL-1 cardiac muscle cell line treated with adriamycin (immunofluorescent staining); format: cell-based; settings: 0.25, 0.5, and 1.0 μM, 48 hrs, HL-1 cells
Method: The HL-1 cell line was a generous gift from Dr. William C. Claycomb^40 in Louisiana State University Medical Center, New Orleans, La. The cells were maintained in Claycomb basal medium (Sigma) supplemented with 10% fetal bovine serum, 0.1 mM norepinephrine and 2 mM L-glutamine. HL-1 cells were treated with adriamycin at 0 μM, 0.25 μM, 0.50 μM, or 1.00 μM for 48 hrs in complete growth medium, and were subjected to immunofluorescent staining.

[4] = test system: Topoisomerase IIβ; experiment: Myocardial nuclear topoisomerase IIβ expression (western blot, qRT-PCR); format: in vivo, rat; settings: ADM only or ADM plus UTMD-GLP-1NLS groups, P<0.001
Method: […] Half rats were killed at 16 hours after last ADM injection; other half rats were killed at 4 weeks after UTMD. The thymidine analog, 5-bromo-2-deoxyuridine (BrdU) (100 mg/kg) was injected intraperitoneally 6 hours prior to euthanasia.
Total RNA was isolated from 100 mg of harvested heart using the Trizol reagent (Invitrogen), according to the manufacturer's instructions and reverse-transcribed using Superscript III RT (Invitrogen). Real-time RT-qPCR analysis was performed on an ABI 7700 Sequence Detector (Applied Biosystems) using SYBR Green (RT2 SYBR Green qPCR Kit, Qiagen). Data were normalized to HKG expression (endogenous control). Changes in gene expression were normalized to control rat heart tissue. Complementary DNA PCR primer sequences information should be requested to the correspondence author.
(§3) Nuclear proteins extracts from cardiac tissue with a NE-PER Nuclear and Cytoplasmic Extraction Kit (Thermo Scientific, Rockford, Ill. 61105, USA). Protein concentrations were determined using the BCA-200 Protein Assay kit (Pierce); equal amounts of protein were separated by SDS-PAGE. […] Horseradish peroxidase secondary antibodies were used, and chemiluminescence was determined using the Super Signal West Dura detection system (Pierce); nuclear marker (lamin) was used to confirm equal loading. […]

[5] = test system: FoxO1; experiment: Myocardial nuclear FoxO1 in adriamycin cardiomyopathy rats (western blot, qRT-PCR); format: in vivo, rat
Method: as §1, with “euthanasia. […]” for “euthanasia.”
as §3

[6] = test system: FoxO1; experiment: FOXO1 inhibitor injection in rats with ADM cardiomyopathy; format: in vivo, rat; settings: total dose 24 mg/kg ip
Method: Animal protocol-4: Specific FOXO1 inhibitor (AS1842856, a small molecular compound from Millipore) was injected into rats with ADM cardiomyopathy to investigate if FOXO1 mediates ADM cardiomyopathy. There were 3 groups of rats as follows: (1) normal control rats, n=6; (2) ADM injection only group at total dose of 15 mg/kg/ip, 2.5 mg/kg/ip 6 times over 2 weeks, (n=6); (3) ADM at total dose of 15 mg/kg/ip, 2.5 mg/kg/ip 6 times over 2 weeks plus FOXO1 inhibitor injection (at total dose of 24 mg/kg/ip, 4 mg/kg/ip 6 times over 2 weeks (n=6). All rats were killed 4 weeks after ADM injection.
as §2

GLP-1 peptide fragment 7-37 human (HAEGTFTSDVSSYLEGQAAKEFIAWLVKGRG; Glucagon-like peptide 1(7-37); UniProt P01275 98-128, looked up) [GLP-1 peptide fragment 7-37 human from Sigma, injected ip]
LV mass and wall thickness in adriamycin cardiomyopathy after therapy ([1]; echocardiography, FIGS. 4 and 11): not

GLP-1 protein: GLP-1 protein given by intravenous infusion to patients in cited studies
global LV function and the function of ischemic LV segments [2]: improved

COc1cccc2c1C(=O)c1c(O)c3c(c(O)c1C2=O)C[C@@](O)(C(=O)CO)C[C@@H]3O[C@H]1C[C@H](N)[C@H](O)[C@H](C)O1 [Adriamycin, adriamycin]
overexpression of nuclear FoxO1 [3]: significantly activates | TOP IIβ mRNA level in normal group, fold greater than in the treated group [4]: 18 fold | FoxO1 mRNA level, fold relative to normal control or normal plus UTMD-GLP-1NLS groups ([5]; qRT-PCR, FIG. 6B, ADM only group, or ADM after UTMD GLP-1NLS gene delivery): 12.6 fold | FoxO1 in cardiac nuclear protein extracts ([5]; western blots, FIG. 6A): significant increase | LV mass and wall thickness ([1]; echocardiography, adriamycin cardiomyopathy, total dose 15 mg/kg ip): decreased | gross pathology of LV walls and cavities compared to normal controls ([1]; rats with adriamycin cardiomyopathy, FIG. 2 B, C): thin LV walls and dilated LV cavities

CCn1cc(C(=O)O)c(=O)c2c(N)c(F)c(NC3CCCCC3)cc21 [AS1842856]
activation of myocardial nuclear FoxO1 ([6]; ADM cardiomyopathy rats, FIG. 12): able to block | ADM cardiomyopathy (fractional shortening, LVPWd) ([6]; FIG. 12 panel A-B): reverse
